Results reported in patent US20240287063A1, “METHIONINE ADENOSYLTRANSFERASE 2A INHIBITOR” (NANJING CHIA TAI TIANQING PHARMACEUTICAL CO., LTD., priority 2021, published 2024).

Assays:
MAT2A enzyme = biological target: T1, MAT2A enzyme (Homo sapiens, UniProt P31153); assay: Enzymatic testing method for MAT2A (Biomol Green, OD620); assay type: biochemical; conditions: score by IC50 for inhibiting MAT2A; read-out: MAT2A inhibition score
T1 construct: purchased BPS 71401
Experimental: • a) A 5×MAT2A test buffer (250 mM Tris-HCl, pH 8.0; 250 mM KCl; 75 mM MgCl2; 0.025% BSA; 0.05% Brij35; 1.5 mM EDTA) was first prepared and partially diluted to 1× for later use; • b) Preparation and addition of MAT2A enzyme (BPS, 71401): the MAT2A enzyme was prepared into 3.674 ng/L by using the 1×MAT2A test buffer (1.67×, final concentration 2.20 ng/L), a BioTek (MultiFlo FX) automatic liquid separator was used, 15 μL of 1.67×MAT2A enzyme solution was added to compound test wells and negative control wells respectively, and 15 μL of 1×MAT2A test buffer was added to blank control wells; • c) Preparation and addition of a compound: a compound to be tested was diluted with DMSO from 10 mM stock solution to 100 μM, a positive drug AGI-24512 was diluted under the same conditions, and the diluted compound and positive drug were automatically sprayed into each well by using a Tecan compound titrator (D300e) according to preset concentration gradients, where the spray volume was little and negligible. The concentration gradient was initially 1 μM, the dilution was implemented by ½ log, and a total of 8 gradients were set. Centrifugation at 2500 rpm for 30 s and incubation at 25° C. for 30 min were performed; • d) Preparation of ATP: 10 mM ATP (Sigma, A7699) was diluted with 1×MAT2A test buffer to 700 μM for later use; • e) Preparation and addition of a substrate and ATP mixture: 5×MAT2A test buffer, 3 μL/well; 750 μM L-methionine (Adamas, 01100469), 2.5 μL/well; 700 μM ATP, 2.5 μL/well; and double distilled water, 2 μL/well. A total amount of required mixture was prepared according to the number of test wells, and 10 μL of the mixture was added to each well by using the BioTek (MultiFlo FX) automatic liquid separator, followed by centrifugation at 2500 rpm for 30 s and reaction at 25° C. for 150 min; • f) Addition of Biomol Green detection reagent: 50 μL of Biomol Green (Enzo, BML-AK111) was added to each well by using the BioTek (MultiFlo FX) automatic liquid separator, followed by centrifugation at 2500 rpm for 30 s and incubation at 25° C. for 20 minutes; • g) After the reaction, OD620 values were read by using a Perkin Elmer (Envision 2105) multifunctional plate reader.
A formula for calculating an inhibition rate was as follows: […]
Wherein, • % Inhibition: inhibition rate % • ODsample: OD620 value in a sample well; • ODmin: representing a mean OD620 value of blank control wells without the enzyme or compound to be tested; • ODmax: representing a mean OD620 value of negative control wells with the enzyme and without the compound.
Then a dose-effect curve log(inhibitor) vs. response-Variable slope was fitted by usingGraphPad Prism 5 software to obtain an IC50 value of compound for MAT2A enzyme inhibition.

HCT116 MTAP −/− cells = assay: Cell testing method: HCT116 MTAP-/- cell proliferation inhibition (CellTiter-Glo, 120 h); assay type: cell-based; conditions: Homo sapiens, HCT-116; score by IC50 for inhibiting HCT116 MTAP−/− cells
Experimental: HCT116 MTAP −/− cells (purchased from Horizon Discovery): human colorectal cancer cell lines with MTAP gene deletion were cultured in medium RPMI 1640+10% FBS (Fetal bovine serum). On day 0 of the experiment, the live cell density of the foregoing cells in logarithmic growth phase was adjusted to 5000 cells/ml, the cells were inoculated to a 96-well plate by an amount of 100 μl/well, and a blank group was set in parallel; and the inoculated cell plate was put into a 37° C., 5% CO2 incubator for overnight culture.
On day 1 of the experiment, the overnight cultured cell plate was taken out, the supernatant was discarded, 80 μl of serum-free RPMI 1640 medium was added to each well, and place the cells in an incubator for starvation cultivation for 4 h. The compound to be tested was dissolved in DMSO (dimethyl sulfoxide) to prepare a 10 mM compound stock solution. After starvation, the cell plate was taken out, and 80 μl of RPMI 1640+20% FBS medium was added to each well; the cell plate was placed on an automatic liquid dispenser D300e (Tecan), and a dosing program was set as follows: a maximum concentration of the compound to be tested was 30 μM, the compound was diluted with DMSO by a 3 times concentration gradient, there was a total of 10 concentrations, two duplicate wells were set for each concentration, and the DMSO final concentration in each well of the 96-well plate was 0.3%, v/v. The pre-prepared 10 mM stock solution of the compound to be tested was taken out, and the above dosing program was run for dosing. After the dosing was completed, the cell plate was placed in incubator and culture for 120 h.
On day 6 of the experiment, the cell plate was taken out, 50 μl of CellTiter-Go® (purchased from Promega) was added to each well, and fluorescence signal was measured on Envision (PerkinElmer) according to operation procedures in the manual.
A dose-effect curve: log(inhibitor) vs. response-Variable slope was fitted by using GraphPad Prism 5 software to obtain an IC50 value of the compound for inhibiting cell proliferation inhibition. A formula for calculating an inhibition rate was: […]
Wherein, • Signal value of tested compound: mean fluorescence signal of cells group+medium group+compound group; • Signal value of blank group: mean fluorescence signal of medium group; • Signal value of negative control group: mean fluorescence signal of cells group+medium group.

T1 sequence (P31153 whole entry): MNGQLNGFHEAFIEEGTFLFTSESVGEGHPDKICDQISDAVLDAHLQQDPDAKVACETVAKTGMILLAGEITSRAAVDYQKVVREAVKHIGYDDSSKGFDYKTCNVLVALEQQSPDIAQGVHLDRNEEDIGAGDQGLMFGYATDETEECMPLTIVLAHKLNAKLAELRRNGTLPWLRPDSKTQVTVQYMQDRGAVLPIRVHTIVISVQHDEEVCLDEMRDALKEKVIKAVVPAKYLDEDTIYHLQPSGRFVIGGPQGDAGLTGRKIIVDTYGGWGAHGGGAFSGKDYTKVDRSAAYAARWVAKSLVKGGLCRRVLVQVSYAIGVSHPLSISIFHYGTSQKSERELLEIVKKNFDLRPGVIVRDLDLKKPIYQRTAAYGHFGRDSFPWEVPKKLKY

SMILES | IC50 (MAT2A enzyme) [µM] | IC50 (HCT116 MTAP −/− cells) [µM]
Cn1cc2cc(-c3cn4ccc(NCC(F)(F)F)nc4c(-c4ccc5nn(C)cc5c4)c3=O)ccc2n1 [Example 12, 7,9-bis[(2-methyl-2H-indazol-5-yl)]-2-[(2,2,2-trifluoroethyl)amino]-8H-pyrido[1,2-a]pyrimidin-8-one] | < 0.05 | > 1
Cn1nccc1-c1c2cc(-c3cn4ccc(C5CC5)cc4c(-c4ccc5c(c4)OC(F)(F)O5)c3=O)ccc2nn1C [Example 7, 8-cyclopropyl-1-(2,2-difluoro-1,3-benzodioxol-5-yl)-3-[2-methyl-3-(2-methylpyrazol-3-yl)indazol-5-yl]quinolizin-2-one] | < 0.05 | 0.4 to 1
O=C1Cn2nc3ccc(-c4cn5ccc(NCC(F)(F)F)nc5c(-c5ccc(OC(F)F)cc5)c4=O)cc3c2C2(CC2)N1 [Example 16, 9′-{9-[4-(difluoromethoxy)phenyl]-8-oxo-2-[(2,2,2-trifluoroethyl)amino]pyrido[1,2-a]pyrimidin-7-yl}-2′,4′-dihydrospiro[cyclopropane-1,1′-pyrazino[1,2-b]indazol]-3′-one] | < 0.05 | 0.4 to 1
COc1ccc(-c2cn3ccc(NCC(F)(F)F)nc3c(-c3ccc(OC)cc3)c2=O)cc1 [Example 11, 7,9-bis[(4-methoxyphenyl)]-2-[(2,2,2-trifluoroethyl)amino]-8H-pyrido[1,2-a]pyrimidin-8-one] | < 0.05 | < 0.15
CN1C(=O)c2c3cc(-c4cn5ccc(NCC(F)(F)F)nc5c(-c5ccc(OC(F)F)cc5)c4=O)ccc3nn2CC12CC2 [Example 15, 9′-{9-[4-(difluoromethoxy)phenyl]-8-oxo-2-[(2,2,2-trifluoroethyl)amino]pyrido[1,2-a]pyrimidin-7-yl}-2′-methyl-4′H-spiro[cyclopropane-1,3′-pyrazino[1,2-b]indazol]-1′-one] | < 0.05 | 0.4 to 1
O=c1c(-c2ccc3c(c2)OCO3)cn2ccc(C3CC3)nc2c1-c1ccc2c(c1)OC(F)(F)O2 [Example 32, 7-(2H-1,3-benzodioxol-5-yl)-2-cyclopropyl-9-(2,2-difluoro-1,3-benzodioxol-5-yl)pyrido[1,2-a]pyrimidin-8-one] | < 0.05 | < 0.15
Cn1cc2cc(-c3cn4ccc(NCC(F)(F)F)nc4c(-c4ccc5c(c4)OC(F)(F)O5)c3=O)ccc2n1 [Example 20, 9-(2,2-difluoro-1,3-benzodioxol-5-yl)-7-(2-methyl-2H-indazol-5-yl)-2-[(2,2,2-trifluoroethyl)amino]-8H-pyrido[1,2-a]pyrimidin-8-one] | < 0.05 | < 0.15

Further lines, results first:

IC50 (MAT2A enzyme) [µM] | IC50 (HCT116 MTAP −/− cells) [µM] | SMILES
< 0.05 | < 0.15 | CCOc1ccn2cc(-c3ccc(OC(F)F)cc3)c(=O)c(-c3ccc(OC(F)F)cc3)c2c1 [Example 4]
< 0.05 | < 0.15 | Cc1cc(NCC(F)(F)F)nc2c(-c3ccc(OC(F)F)cc3)c(=O)c(-c3ccc(OC(F)F)cc3)cn12 [Example 41, 7,9-bis(4-(difluoromethoxy)phenyl)-4-methyl-2-((2,2,2-trifluoroethyl)amino)-8H-pyrido[1,2-a]pyrimidin-8-one]
< 0.05 | < 0.15 | O=c1c(-c2ccc(OC(F)F)cc2)cn2ccc(NCC(F)(F)F)nc2c1-c1ccc(OC(F)F)cc1 [Example 10, 7,9-bis[4-(difluoromethoxy)phenyl]-2-[(2,2,2-trifluoroethyl)amino]-8H-pyrido[1,2-a]pyrimidin-8-one]
< 0.05 | 0.15 to 0.4 | Cc1cn2cc(-c3ccc(OC(F)F)cc3)c(=O)c(-c3ccc(OC(F)F)cc3)c2nc1NCC(F)(F)F [Example 42, 7,9-bis(4-(difluoromethoxy)phenyl)-3-methyl-2-((2,2,2-trifluoroethyl)amino)-8H-pyrido[1,2-a]pyrimidin-8-one]
< 0.05 | < 0.15 | O=c1c(-c2ccc(OC(F)F)cc2)cn2ccc(OCC(F)(F)F)nc2c1-c1ccc(OC(F)F)cc1 [Example 24, 7,9-bis[4-(difluoromethoxy)phenyl]-2-(2,2,2-trifluoroethoxy)-8H-pyrido[1,2-a]pyrimidin-8-one]
